Where two headings read alike, the source gives them in different places.
Assays:
[1] = target: T1, bovine serum albumin (BSA) (Bos taurus, UniProt P02769); assay: BSA fluorescence quenching (Stern-Volmer); format: binding; settings: 0.01 M PBS buffer pH 7.4, 25 °C, λex = 280 nm
T1 construct: purchased Sigma-Aldrich Chemicals
Method: Fluorescence measurements were carried out on a Varian Cary Eclipse spectrofluorometer. The quenching studies of BSA with the Ga(III) complexes were investigated to determine whether they were able to quench fluorescence of BSA. All measurements were performed at 25 °C in 0.01 M PBS buffer (pH 7.4). The fluorescence spectra were measured at an excitation wavelength of 280 nm, with a slit width of 10 nm for the excitation and emission beams, in the range of 300–450 nm and analysed according to the classical Stern–Volmer Equation: F0/F=1+KSVQ where F0 and F are the fluorescence intensities in the absence and the presence of the quencher, respectively, KSV is the Stern–Volmer constant, and [Q] is the concentration of quencher.

[2] = tested on: Candida parapsilosis (C. parapsilosis) ATCC 22019; assay: Antimicrobial activity, macrodilution method (yeast, growth by A590); format: cell-based; settings: Lodderomyces parapsilosis
[3] = tested on: Microsporum gypseum (M. gypseum) CCM F-8342; assay: Growth of filamentous fungi, macrodilution method on solidified PDA (colony diameter); format: cell-based; settings: Nannizzia gypsea, read-out: IC50 M. gypseum
[4] = tested on: Alternaria alternata (A. alternata) CCM F-128; assay: as above; format: cell-based; settings: Alternaria alternata, read-out: IC50 A. alternata
[5] = tested on: Rhizopus oryzae (R. oryzae) CCM F-8284; assay: as above; format: cell-based; settings: Rhizopus arrhizus, read-out: IC50 R. oryzae
[6] = MTS antiproliferative assay (non-cancer cells); settings: human
[7] = Filamentous fungi, solidified potato-dextrose growth medium

T1 sequence (P02769 25-607): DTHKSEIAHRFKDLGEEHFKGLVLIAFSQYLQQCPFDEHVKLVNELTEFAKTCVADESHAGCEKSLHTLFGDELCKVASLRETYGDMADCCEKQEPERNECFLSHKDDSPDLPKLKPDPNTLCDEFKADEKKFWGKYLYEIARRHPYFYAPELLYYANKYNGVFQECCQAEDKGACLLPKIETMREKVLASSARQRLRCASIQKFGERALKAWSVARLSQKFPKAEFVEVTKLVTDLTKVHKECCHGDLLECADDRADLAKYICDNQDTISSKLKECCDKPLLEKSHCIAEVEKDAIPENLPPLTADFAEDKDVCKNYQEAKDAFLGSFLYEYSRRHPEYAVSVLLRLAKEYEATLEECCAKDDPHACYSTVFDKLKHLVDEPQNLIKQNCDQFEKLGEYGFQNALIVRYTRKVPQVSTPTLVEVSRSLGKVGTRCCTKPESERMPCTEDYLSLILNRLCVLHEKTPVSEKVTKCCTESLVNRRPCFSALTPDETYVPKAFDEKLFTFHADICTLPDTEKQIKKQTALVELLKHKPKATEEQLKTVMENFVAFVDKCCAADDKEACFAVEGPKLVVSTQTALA

Structure (SMILES)	Stern–Volmer binding constant Ksv BSA [1]	IC50 ([2]; ATCC22019, read-out: IC50 C. parapsilosis)	IC50 [3]	IC50 [4]	IC50 [5]	IC50 at 72 h [6]	IC50 ([2]; ATCC22019, Yeast, Sabouraud's growth medium, 37 °C, read-out: IC50 C. parapsilosis)	IC50 [3, 7]	IC50 [4, 7]	IC50 ([5]; solidified potato-dextrose growth medium)	IC50 at 72 h ([6]; human dermal fibroblasts (HDF))
O=C(O)c1cccc(C(=O)O)n1 [H2Dpic, dipicolinic acid]	28700 M⁻¹	> 1000 µM	> 1000 µM	> 1000 µM	500 µM	> 200 µM					
O=C(O)c1ccccn1 [HPic, picolinic acid]	6800 M⁻¹						> 500 µM	> 500 µM	> 500 µM	> 500 µM	> 200 µM

Reference: PMC10415494, “Ga(III) pyridinecarboxylate complexes: potential analogues of the second generation of therapeutic Ga(III) complexes?” (Journal of Biological Inorganic Chemistry, 2023)
